In brackets after ≈: the same amount, converted by molar mass. Like-named read-outs stand apart in the source and are kept apart here. Starred links: 1 amine or outer side, 2 acyl side, 3 side chain; linkers in the order of their positions; H or OH if unused. Positions of bridges follow the written chain, without caps; N, C: chain ends. Non-standard residues stand in square brackets, D forms with d. Residues, ends and D or L forms follow the SMILES beside them. *: point of attachment. hTyr(3S-OH,4S-OH,3'-OSO3H) = N[C@H](C(=O)O)[C@H](O)[C@@H](O)c1ccc(O)c(OS(=O)(=O)O)c1; Orn(4R-OH,5R-OH) = O=C([C@H](C[C@@H](O)[C@@H](O)N[*:3])N[*:1])[*:2]; Pro(3S-OH,4S-Me) = C[C@H]1CN[C@H](C(=O)O)[C@H]1O; X1 = CCCCCOc1ccc(-c2cc(-c3ccc(C(=O)*)cc3)no2)cc1; Gln(3R-OH) = NC(=O)C[C@@H](O)[C@H](N)C(=O)O; Hyp = O=C(O)[C@@H]1C[C@@H](O)CN1
How the values were obtained:
[1] = test system: C. albicans; assay: Mutant prevention concentration (MPC) determination; assay type: cell-based, Candida albicans; conditions: wild-type isolates; 24 hr, ~1×10^7 CFU/mL
[2] = test system: C. glabrata; assay: as above; assay type: cell-based, Candida glabrata; conditions: wild-type isolates; 24 hr, ~1×10^7 CFU/mL
[3] = test system: C. albicans vaginal isolates; assay: Susceptibility testing of VVC clinical isolates at pH 7 and 4 (CLSI M27-A3); assay type: cell-based, Candida albicans; conditions: Candida albicans
[4] = test system: Candida glabrata; assay: microbe, parasite or virus in culture; assay type: cell-based
[5] = test system: Candida krusei; assay: Broth microdilution of invasive fungal isolates (CLSI M27-A3/M38-A2); assay type: cell-based
[6] = test system: Candida dubliniensis; assay: as above; assay type: cell-based
[7] = test system: 1,3-β-D-glucan synthase from C. glabrata; assay: Glucan synthase (GS) inhibition assay
[8] = test system: C. parapsilosis; assay: Antifungal susceptibility testing (CLSI M27-S4); conditions: WT (19 isolates); 24 hr
Procedure: (§1) Antifungal susceptibility testing. Antifungal susceptibility testing was performed in triplicate for a collection of 95 Candida strains (20 C. albicans, 20 C. glabrata, 2 C. dubliniensis, 15 C. krusei, 19 C. parapsilosis, and 19 C. tropicalis) that included 30 isolates showing an echinocandin resistance (ER) phenotype (caspofungin-resistant) in accordance with the guidelines described in the Clinical and Laboratory Standards Institute (CLSI) document M27-S4. […] Stock solutions of the drugs were kept at −86° C.

[9] = test system: C. albicans; assay: Antifungal susceptibility testing (CLSI M27-S4), WT and echinocandin-resistant isolates; conditions: for MIC median (range): 24 hr
Procedure: as §1

[10] = test system: C. glabrata; assay: as above; conditions: for MIC median (range): 24 hr
Procedure: as §1

[11] = test system: C. dubliniensis; assay: as above; conditions: 24 hr
Procedure: as §1

[12] = test system: C. krusei; assay: as above; conditions: 24 hr
Procedure: as §1

[13] = test system: C. tropicalis; assay: as above; conditions: 24 hr
Procedure: as §1

## CCCCCOc1ccc(-c2cc(-c3ccc(C(=O)N[C@H]4C[C@@H](O)[C@@H](O)NC(=O)[C@@H]5[C@@H](O)[C@@H](C)CN5C(=O)[C@H]([C@H](O)CC(N)=O)NC(=O)[C@H]([C@H](O)[C@@H](O)c5ccc(O)c(OS(=O)(=O)O)c5)NC(=O)[C@@H]5C[C@@H](O)CN5C(=O)[C@H]([C@@H](C)O)NC4=O)cc3)no2)cc1 [MCF, micafungin] (X1-[Orn(4R-OH,5R-OH)]T[Hyp][hTyr(3S-OH,4S-OH,3'-OSO3H)][Gln(3R-OH)][Pro(3S-OH,4S-Me)]; lactam 1-C)
[1]
  MPC: 16 µg/mL
[2]
  MPC: 16 µg/mL
[3]; 24 h, pH 4
  MIC90: 0.125 µg/mL (≈ 0.0984 µM)
[3]; 24 h, pH 7
  MIC90: 0.008 µg/mL (≈ 0.0063 µM)
[3]; 48 h, pH 4
  MIC90: 0.25 µg/mL (≈ 0.197 µM)
[3]; 48 h, pH 4, fluconazole-resistant isolate 1, pH 4
  MIC: 0.016 µg/mL (≈ 0.0126 µM)
[3]; 48 h, pH 4, fluconazole-resistant isolate 2, pH 4
  MIC: 0.016 µg/mL (≈ 0.0126 µM)
[3]; 48 h, pH 4, fluconazole-resistant isolate 3, pH 4
  MIC: 0.016 µg/mL (≈ 0.0126 µM)
[3]; 48 h, pH 4, fluconazole-resistant isolate 4, pH 4
  MIC: 0.03 µg/mL (≈ 0.0236 µM)
[3]; 48 h, pH 4, fluconazole-resistant isolate 5, pH 4
  MIC: 0.016 µg/mL (≈ 0.0126 µM)
[3]; 48 h, pH 4, fluconazole-resistant isolate 6, pH 4
  MIC: 0.03 µg/mL (≈ 0.0236 µM)
[3]; 48 h, pH 4, fluconazole-resistant isolate 7, pH 4
  MIC: 0.25 µg/mL (≈ 0.197 µM)
[3]; 48 h, pH 4, fluconazole-resistant isolate 8, pH 4
  MIC: 0.06 µg/mL (≈ 0.0472 µM)
[3]; 48 h, pH 4, fluconazole-resistant isolate 9, pH 4
  MIC: 0.125 µg/mL (≈ 0.0984 µM)
[3]; 48 h, pH 4, fluconazole-resistant isolate 10, pH 4
  MIC: 0.06 µg/mL (≈ 0.0472 µM)
[3]; 48 h, pH 7
  MIC90: 0.03 µg/mL (≈ 0.0236 µM)
[3]; 48 h, pH 7, fluconazole-resistant isolate 1, pH 7
  MIC: 0.008 µg/mL (≈ 0.0063 µM)
[3]; 48 h, pH 7, fluconazole-resistant isolate 2, pH 7
  MIC: 0.016 µg/mL (≈ 0.0126 µM)
[3]; 48 h, pH 7, fluconazole-resistant isolate 3, pH 7
  MIC: 0.008 µg/mL (≈ 0.0063 µM)
[3]; 48 h, pH 7, fluconazole-resistant isolate 4, pH 7
  MIC: 0.008 µg/mL (≈ 0.0063 µM)
[3]; 48 h, pH 7, fluconazole-resistant isolate 5, pH 7
  MIC: 0.06 µg/mL (≈ 0.0472 µM)
[3]; 48 h, pH 7, fluconazole-resistant isolate 6, pH 7
  MIC: 0.008 µg/mL (≈ 0.0063 µM)
[3]; 48 h, pH 7, fluconazole-resistant isolate 7, pH 7
  MIC: 0.06 µg/mL (≈ 0.0472 µM)
[3]; 48 h, pH 7, fluconazole-resistant isolate 8, pH 7
  MIC: 0.008 µg/mL (≈ 0.0063 µM)
[3]; 48 h, pH 7, fluconazole-resistant isolate 9, pH 7
  MIC: 0.06 µg/mL (≈ 0.0472 µM)
[3]; 48 h, pH 7, fluconazole-resistant isolate 10, pH 7
  MIC: 0.008 µg/mL (≈ 0.0063 µM)
[4]
  Cumulative % of isolates inhibited at MIC 0.015 μg/mL: (74.0) %
  Cumulative % of isolates inhibited at MIC 0.03 μg/mL: (95.0) %
  Cumulative % of isolates inhibited at MIC 0.06 μg/mL: (95.0) %
  Cumulative % of isolates inhibited at MIC 0.12 μg/mL: (95.0) %
  Cumulative % of isolates inhibited at MIC 0.25 μg/mL: (95.0) %
  Cumulative % of isolates inhibited at MIC 0.5 μg/mL: (95.0) %
  Cumulative % of isolates inhibited at MIC 1 μg/mL: (95.0) %
  Cumulative % of isolates inhibited at MIC 2 μg/mL: (98.0) %
  Cumulative % of isolates inhibited at MIC 4 μg/mL: (100.0) %
  Cumulative % of isolates inhibited at MIC ≤0.008 μg/mL: (1.0) %
  MIC according to CLSI method: 4 µg/mL (≈ 3.15 µM)
  Number of isolates inhibited at MIC 0.015 μg/mL: 73
  Number of isolates inhibited at MIC 0.03 μg/mL: 21
  Number of isolates inhibited at MIC 0.06 μg/mL: 0
  Number of isolates inhibited at MIC 0.12 μg/mL: 0
  Number of isolates inhibited at MIC 0.25 μg/mL: 0
  Number of isolates inhibited at MIC 0.5 μg/mL: 0
  Number of isolates inhibited at MIC 1 μg/mL: 0
  Number of isolates inhibited at MIC 2 μg/mL: 3
  Number of isolates inhibited at MIC 4 μg/mL: 2
  Number of isolates inhibited at MIC ≤0.008 μg/mL: 1
[4]; Nakaseomyces glabratus, read-out: MIC50
  MIC50: 0.015 µg/mL (≈ 0.0118 µM)
[4]; Nakaseomyces glabratus, read-out: MIC90
  MIC90: 0.03 µg/mL (≈ 0.0236 µM)
[4]; Nakaseomyces glabratus, read-out: MIC according to CLSI method
  MIC: 2 µg/mL (≈ 1.57 µM)
[4]; Nakaseomyces glabratus, read-out: MIC results
  MIC: 2 to 4 µg/mL (≈ 1.57 to 3.15 µM)
[5]; 16 isolates
  Cumulative % of isolates inhibited at MIC 0.06 μg/mL: (50.0) %
  Cumulative % of isolates inhibited at MIC 0.12 μg/mL: (100.0) %
  Number of isolates inhibited at MIC 0.06 μg/mL: 8
  Number of isolates inhibited at MIC 0.12 μg/mL: 8
[5]; Pichia kudriavzevii
  MIC50: 0.06 µg/mL (≈ 0.0472 µM)
  MIC90: 0.12 µg/mL (≈ 0.0945 µM)
[6]; 11 isolates
  Cumulative % of isolates inhibited at MIC 0.015 μg/mL: (27.3) %
  Cumulative % of isolates inhibited at MIC 0.03 μg/mL: (100.0) %
  Number of isolates inhibited at MIC 0.015 μg/mL: 3
  Number of isolates inhibited at MIC 0.03 μg/mL: 8
[6]; Candida dubliniensis
  MIC50: 0.03 µg/mL (≈ 0.0236 µM)
  MIC90: 0.03 µg/mL (≈ 0.0236 µM)
[7]; DPL50, WT
  IC50: 0.000447 µg/mL (≈ 0.000352 µM)
[7]; F659del mutant GS, 10,000 ng/mL
  GS activity after treatment with a high dose: did not exhibit significant reductions in activity
[8]
  MIC median (range): 4 (1-4) mg/L
[9]; C. albicans ER isolates
  % of ER isolates with an MIC of ≤0.5 mg/L: 40%
[9]; ER (10 isolates)
  MIC median (range): 0.50 (0.03-4) mg/L
[9]; WT (10 isolates)
  MIC median (range): <0.03 (<0.03)^ mg/L
[10]; C. glabrata ER isolates (n=11)
  % of ER isolates with an MIC: 63%
[10]; ER (11 isolates)
  MIC median (range): 0.50 (0.06-4) mg/L
[10]; WT (9 isolates)
  MIC median (range): <0.03 (<0.03)^ mg/L
[11]; ER (1 isolate)
  MIC median (range): 0.03 µg/mL (≈ 0.0236 µM)
[11]; WT (1 isolate)
  MIC median (range): 0.03 µg/mL (≈ 0.0236 µM)
[12]; ER (4 isolates)
  MIC median (range): 1.00 (0.03-8) mg/L
[12]; WT (11 isolates)
  MIC median (range): 0.12 (0.03-0.25) mg/L
[13]; ER (4 isolates)
  MIC median (range): 2.00 (1-4) mg/L
[13]; WT (15 isolates)
  MIC median (range): 0.03 (0.03)^ mg/L
